The assay relates to T1, LPAAT (lysophosphatidate acyltransferase, microsomal preparations).
T1 construct: gene LPAT2; native microsomes from 27 DAF embryos; several endogenous ER isoenzymes
In words: […]-PA formation, TLC; bi-substrate rate equation fit. The assay is classed as biochemical. Particulars: 50 mM Tris pH 7.5, 1 mg/ml BSA, 30°C, 10 min, embryo microsomes, line not told.

What is called Km is the concentration of substrate that gives half-maximal velocity.

With `CCCCCCCC/C=C\CCCCCCCC(=O)SCCNC(=O)CCNC(=O)[C@H](O)C(C)(C)COP(=O)(O)OP(=O)(O)OC[C@H]1O[C@@H](n2cnc3c(N)ncnc32)[C@H](O)[C@@H]1OP(=O)(O)O` [oleoyl-CoA], where the note is “co-substrate LPA at high concentration, labelled compound (1-14C-oleoyl-CoA)”, the Michaelis constant (Km) came out at 103 µM.

With `CCCCCCCC/C=C\CCCCCCCC(=O)OC[C@@H](O)COP(=O)(O)O` [LPA], under “co-substrate 1-14C-oleoyl-CoA at high concentration”, the Michaelis constant (Km) worked out at 15.2 µM.

Values taken from paper PMC6790676, “Increase in lysophosphatidate acyltransferase activity in oilseed rape (Brassica napus) increases seed triacylglycerol content despite its low intrinsic flux control coefficient” (The New Phytologist, 2019).
